Reference: patent US8697739B2, “Bicyclic acetyl-CoA carboxylase inhibitors and uses thereof” (Novartis AG, priority 2010, dated 2014)

What follows are compounds tested against T1, human acetyl-CoA carboxylase 2 (ACC2) (Homo sapiens, UniProt O00763) (assay: Acetyl-CoA carboxylase enzyme assay (malonyl-CoA formation by LC/MS/MS)). Settings: recombinant human ACC2 (aa 144-2458); read-out: IC50 ACC2.
T1 construct: The cDNA encoding amino acids 144 to 2458 of human acetyl-CoA carboxylase 2; made in house; host or cells: Sf9 insect cells (baculovirus, pFastBac1)
Type: biochemical
How it was run: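 Malonyl-CoA formation was read by LC/MS/MS MRM against a [13C3]-malonyl-CoA internal standard, after acetic acid quench. The enzyme was baculovirus/Sf9-expressed human ACC2 residues 144–2458, given 15 minutes room-temperature compound preincubation in HEPES pH 7.5 buffer with MgCl2, citrate and DTT. Substrate solution held 50 μM acetyl-CoA, 120 μM ATP and 2 mM KHCO3.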

T1 sequence (O00763 144-2458): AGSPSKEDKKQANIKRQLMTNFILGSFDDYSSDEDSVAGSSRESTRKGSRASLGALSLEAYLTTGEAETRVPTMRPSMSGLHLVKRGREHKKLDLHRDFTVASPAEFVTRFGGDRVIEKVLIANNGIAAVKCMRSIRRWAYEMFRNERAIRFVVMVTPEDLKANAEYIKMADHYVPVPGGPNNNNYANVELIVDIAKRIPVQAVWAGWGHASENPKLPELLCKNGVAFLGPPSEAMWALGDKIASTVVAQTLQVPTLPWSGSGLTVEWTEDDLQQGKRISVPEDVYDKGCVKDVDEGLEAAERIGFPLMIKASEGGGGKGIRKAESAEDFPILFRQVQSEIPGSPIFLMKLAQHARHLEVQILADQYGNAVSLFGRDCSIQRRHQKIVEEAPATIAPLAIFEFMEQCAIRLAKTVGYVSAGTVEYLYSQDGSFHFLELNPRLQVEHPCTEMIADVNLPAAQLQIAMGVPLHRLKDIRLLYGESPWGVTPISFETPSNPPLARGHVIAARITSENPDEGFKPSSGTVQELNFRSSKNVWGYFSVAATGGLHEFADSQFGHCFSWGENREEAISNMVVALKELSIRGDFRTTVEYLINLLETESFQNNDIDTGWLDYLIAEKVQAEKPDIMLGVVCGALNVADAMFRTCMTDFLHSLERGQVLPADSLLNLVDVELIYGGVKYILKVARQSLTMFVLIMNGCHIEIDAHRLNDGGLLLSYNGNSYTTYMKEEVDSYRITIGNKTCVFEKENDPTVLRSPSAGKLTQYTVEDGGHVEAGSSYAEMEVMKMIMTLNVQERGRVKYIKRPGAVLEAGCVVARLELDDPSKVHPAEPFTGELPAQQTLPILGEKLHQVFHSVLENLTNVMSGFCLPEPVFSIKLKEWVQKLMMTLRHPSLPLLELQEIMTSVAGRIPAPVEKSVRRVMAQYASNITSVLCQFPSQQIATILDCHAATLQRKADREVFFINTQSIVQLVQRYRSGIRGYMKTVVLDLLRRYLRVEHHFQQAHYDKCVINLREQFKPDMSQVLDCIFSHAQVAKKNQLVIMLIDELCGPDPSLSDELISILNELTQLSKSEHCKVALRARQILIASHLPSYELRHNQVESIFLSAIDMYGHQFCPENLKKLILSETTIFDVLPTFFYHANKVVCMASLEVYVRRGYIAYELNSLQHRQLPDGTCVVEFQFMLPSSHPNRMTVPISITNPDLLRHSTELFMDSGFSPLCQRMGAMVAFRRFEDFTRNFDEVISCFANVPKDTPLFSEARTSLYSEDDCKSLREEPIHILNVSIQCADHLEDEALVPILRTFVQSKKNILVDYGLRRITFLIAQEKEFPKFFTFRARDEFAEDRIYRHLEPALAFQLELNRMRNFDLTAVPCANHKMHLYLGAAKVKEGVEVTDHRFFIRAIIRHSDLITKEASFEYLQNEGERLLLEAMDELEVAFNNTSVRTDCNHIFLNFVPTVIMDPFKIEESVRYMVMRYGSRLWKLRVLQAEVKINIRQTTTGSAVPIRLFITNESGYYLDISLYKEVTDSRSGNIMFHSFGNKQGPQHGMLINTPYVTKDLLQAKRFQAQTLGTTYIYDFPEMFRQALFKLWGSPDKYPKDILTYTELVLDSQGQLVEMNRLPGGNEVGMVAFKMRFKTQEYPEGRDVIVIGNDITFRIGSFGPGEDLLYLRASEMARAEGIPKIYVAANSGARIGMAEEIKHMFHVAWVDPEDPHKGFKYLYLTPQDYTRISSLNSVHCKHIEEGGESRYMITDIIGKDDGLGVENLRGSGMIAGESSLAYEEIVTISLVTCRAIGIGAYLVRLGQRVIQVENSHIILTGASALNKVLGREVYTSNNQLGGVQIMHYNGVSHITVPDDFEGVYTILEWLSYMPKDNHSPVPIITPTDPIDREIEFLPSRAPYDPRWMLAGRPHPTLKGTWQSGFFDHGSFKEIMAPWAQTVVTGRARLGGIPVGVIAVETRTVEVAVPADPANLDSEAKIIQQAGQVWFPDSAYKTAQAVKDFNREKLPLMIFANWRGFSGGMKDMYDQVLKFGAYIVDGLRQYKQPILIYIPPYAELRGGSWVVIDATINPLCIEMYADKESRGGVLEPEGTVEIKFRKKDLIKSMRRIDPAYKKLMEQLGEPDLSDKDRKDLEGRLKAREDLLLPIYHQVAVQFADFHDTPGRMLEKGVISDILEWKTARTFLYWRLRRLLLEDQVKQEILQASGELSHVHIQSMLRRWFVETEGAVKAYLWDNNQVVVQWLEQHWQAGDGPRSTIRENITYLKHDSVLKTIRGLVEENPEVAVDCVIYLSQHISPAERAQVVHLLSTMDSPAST

Structure (SMILES) | IC50 [nM]
COc1cccc(Nc2nc3cc(S(=O)(=O)Nc4ccc(C(=O)OC(C)C)cc4)ccc3[nH]2)c1 [Example 524, isopropyl 4-(2-(3-methoxyphenylamino)-1H-benzo[d]imidazole-5-sulfonamido)benzoate] | 360
Cc1ccccc1-c1nc2cc(S(=O)(=O)N[C@H]3CC[C@H](C(=O)N[C@H](C)c4ccc(F)cc4)CC3)cnc2s1 [Example 75, (1r,4R)-N-((R)-1-(4-fluorophenyl)ethyl)-4-(2-o-tolylthiazolo[5,4-b]pyridine-6-sulfonamido)cyclohexanecarboxamide] | 95
CC(C)OC(=O)[C@H]1CC[C@H](NS(=O)(=O)c2ccc3[nH]c(Nc4ccccc4)nc3c2)CC1 [Example 554, (1r,4r)-isopropyl 4-(2-(phenylamino)-1H-benzo[d]imidazole-5-sulfonamido)cyclohexanecarboxylate] | 28
Cc1ccc(C)c(-c2cc3ccc(S(=O)(=O)N[C@H]4CC[C@H](C(=O)N[C@H](C)c5ccc(F)cc5)CC4)cc3[nH]2)c1 [Example 298, (1r,4R)-4-(2-(2,5-dimethylphenyl)-1H-indole-6-sulfonamido)-N-((R)-1-(4-fluorophenyl)ethyl)cyclohexanecarboxamide] | 24
CC(C)c1nnc([C@H]2CC[C@H](NS(=O)(=O)c3ccc4[nH]c(Nc5ccc(N6CCOCC6)cc5)nc4c3)CC2)o1 [Example 599, N-((1r,4r)-4-(5-isopropyl-1,3,4-oxadiazol-2-yl)cyclohexyl)-2-(4-morpholinophenylamino)-1H-benzo[d]imidazole-5-sulfonamide] | 270
CC(C)OC(=O)c1ccc(NS(=O)(=O)c2ccc3nc(-c4ccc(C(C)O)cc4)[nH]c3c2)cc1 (stereo not drawn) [Example 517, isopropyl 4-(2-(4-(1-hydroxyethyl)phenyl)-1H-benzo[d]imidazole-6-sulfonamido)benzoate] | 247
Cn1c(-c2ccccc2)cc2ccc(S(=O)(=O)N[C@H]3CC[C@H](C(=O)N[C@@H](c4ccccc4)C(C)(C)CO)CC3)cc21 [Example 439, (1r,4S)-N-((S)-3-hydroxy-2,2-dimethyl-1-phenylpropyl)-4-(1-methyl-2-phenyl-1H-indole-6-sulfonamido)cyclohexanecarboxamide] | < 10
COCCOc1ccc(-c2cc3ccc(S(=O)(=O)N[C@H]4CC[C@H](C(=O)N5CCOC(C)(C)C5)CC4)cc3n2C)cc1 [Example 450, N-((1r,4r)-4-(2,2-dimethylmorpholine-4-carbonyl)cyclohexyl)-2-(4-(2-methoxyethoxy)phenyl)-1-methyl-1H-indole-6-sulfonamide] | 130
Cc1ccc2cc(S(=O)(=O)N[C@H]3CC[C@H](C(=O)N[C@H](C)c4ccc(F)cc4)CC3)ccc2n1 [Example 72, (1r,4R)-N-((R)-1-(4-fluorophenyl)ethyl)-4-(2-methylquinoline-6-sulfonamido)cyclohexanecarboxamide] | 115
CC(NC(=O)[C@H]1CC[C@H](NS(=O)(=O)c2ccc3cc(Cl)ccc3c2)CC1)c1cccnc1 (stereo partly drawn) [Example 681, (1r,4r)-4-(6-chloronaphthalene-2-sulfonamido)-N-(1-(pyridin-3-yl)ethyl)cyclohexanecarboxamide] | 142
C[C@@H](NC(=O)[C@H]1CC[C@H](NS(=O)(=O)c2ccc3[nH]ccc3c2)CC1)c1ccc(F)cc1 [Example 16, (1r,4R)—N—((R)-1-(4-fluorophenyl)ethyl)-4-(1H-indole-5-sulfonamido)cyclohexanecarboxamide] | 51
C[C@@H](NC(=O)[C@H]1CC[C@H](NS(=O)(=O)c2ccc3ccccc3c2)CC1)c1ccc(F)cc1 [Example 677, (1r,4R)-N-((R)-1-(4-fluorophenyl)ethyl)-4-(naphthalene-2-sulfonamido)cyclohexanecarboxamide] | 10
O=C(NCCO)[C@H]1CC[C@H](NS(=O)(=O)c2ccc3[nH]c(-c4ccccc4)nc3c2)CC1 [Example 621, (1r,4r)-N-(2-hydroxyethyl)-4-(2-phenyl-1H-benzo[d]imidazole-5-sulfonamido)cyclohexanecarboxamide] | 1520
CCOc1ccc2cc(S(=O)(=O)N[C@H]3CC[C@H](C(=O)N[C@H](COC(=O)[C@@H](N)C(C)C)c4ccccc4)CC3)ccc2n1 [Example 266, (S)-((S)-2-((1r,4S)-4-(2-ethoxyquinoline-6-sulfonamido)cyclohexanecarboxamido)-2-phenylethyl) 2-amino-3-methylbutanoate] | 140
CC(O)c1ccc(-c2nc3cc(S(=O)(=O)N[C@H]4CC[C@H](C(=O)N[C@H](C)c5ccccc5)CC4)ccc3[nH]2)cc1 (stereo partly drawn) [Example 573, (1r,4R)-4-(2-(4-(1-hydroxyethyl)phenyl)-1H-benzo[d]imidazole-5-sulfonamido)-N-((R)-1-phenylethyl)cyclohexanecarboxamide] | < 10
Cn1c(-c2ccccc2)cc2ccc(S(=O)(=O)N[C@H]3CC[C@H](C(=O)N4CCN[C@@H](C(F)(F)F)C4)CC3)cc21 [Example 332, 1-methyl-2-phenyl-N-((1R,4r)-4-((R)-3-(trifluoromethyl)piperazine-1-carbonyl)cyclohexyl)-1H-indole-6-sulfonamide] | 25
Cn1c(-c2ccccc2)cc2ccc(S(=O)(=O)N[C@H]3CC[C@H](C(=O)N4CCN[C@H](C(F)(F)F)C4)CC3)cc21 [Example 331, 1-methyl-2-phenyl-N-((1S,4r)-4-((S)-3-(trifluoromethyl)piperazine-1-carbonyl)cyclohexyl)-1H-indole-6-sulfonamide] | 25
C[C@@H](NC(=O)[C@H]1CC[C@H](NS(=O)(=O)c2ccc3c(c2)N(C)C(=O)CO3)CC1)c1ccc(F)cc1 [Example 156, (1r,4R)-N-((R)-1-(4-fluorophenyl)ethyl)-4-(4-methyl-3-oxo-3,4-dihydro-2H-benzo[b][1,4]oxazine-6-sulfonamido)cyclohexanecarboxamide] | 183
C[C@@H](NC(=O)[C@H]1CC[C@H](NS(=O)(=O)c2cnc3c(c2)N(C2CC2)CCN3C)CC1)c1ccc(F)cc1 [Example 132, (1r,4R)-4-(1-cyclopropyl-4-methyl-1,2,3,4-tetrahydropyrido[3,2-b]pyrazine-7-surfonamido)-N-((R)-1-(4-fluorophenyl)ethyl)cyclohexanecarboxamide] | 68
Cn1c(-c2ccc(CO)cc2)cc2ccc(S(=O)(=O)N[C@H]3CC[C@H](C(=O)N4CCN[C@@H](C(F)(F)F)C4)CC3)cc21 [Example 338, 2-(4-(hydroxymethyl)phenyl)-1-methyl-N-((1R,4r)-4-((R)-3-(trifluoromethyl)piperazine-1-carbonyl)cyclohexyl)-1H-indole-6-sulfonamide] | 15
CC(C)OC(=O)c1ccc(NS(=O)(=O)c2ccc3[nH]c(Nc4ccc(N5CCOCC5)cc4)nc3c2)cc1 [Example 532, isopropyl 4-(2-(4-morpholinophenylamino)-1H-benzo[d]imidazole-5-sulfonamido)benzoate] | 109
COCCCNC(=O)[C@H]1CC[C@H](NS(=O)(=O)c2ccc3[nH]c(-c4ccccc4)nc3c2)CC1 [Example 642, (1r,4r)-N-(3-methoxypropyl)-4-(2-phenyl-1H-benzo[d]imidazole-5-sulfonamido)cyclohexanecarboxamide] | 1340
CC(C)[C@H]1COCCN1C(=O)[C@H]1CC[C@H](NS(=O)(=O)c2ccc3cc(C4CC4)n(C)c3c2)CC1 [Example 22, 2-cyclopropyl-N-((1S,4r)-4-((S)-3-isopropylmorpholine-4-carbonyl)cyclohexyl)-1-methyl-1H-indole-6-sulfonamide] | 70
C[C@@H](NC(=O)[C@H]1CC[C@H](NS(=O)(=O)c2ccc3nc(C(F)(F)F)cn3c2)CC1)c1ccc(F)cc1 [Example 40, (1r,4R)-N-((R)-1-(4-fluorophenyl)ethyl)-4-(2-(trifluoromethyl)imidazo[1,2-a]pyridine-6-sulfonamido)cyclohexanecarboxamide] | 34100
CC(C)OC(=O)c1ccc(NS(=O)(=O)c2ccc3[nH]c(Nc4cccc(F)c4F)nc3c2)cc1 [Example 533, isopropyl 4-(2-(2,3-difluorophenylamino)-1H-benzo[d]imidazole-5-sulfonamido)benzoate] | 641
Cc1cc(-c2ccc3cc(S(=O)(=O)N[C@H]4CC[C@H](C(=O)NC(c5ccccc5)C(C)(C)O)CC4)ccc3n2)cc(C)n1 (stereo partly drawn) [Example 253, (1r,4r)-4-(2-(2,6-dimethylpyridin-4-yl)quinoline-6-sulfonamido)-N-(2-hydroxy-2-methyl-1-phenylpropyl)cyclohexanecarboxamide] | 20
C[C@@H](NC(=O)[C@H]1CC[C@H](NS(=O)(=O)c2ccc3[nH]c([C@H]4CCCO4)nc3c2)CC1)c1ccc(F)cc1 [Example 117, (1r,4R)-N-((R)-1-(4-fluorophenyl)ethyl)-4-(2-((R)-tetrahydrofuran-2-yl)-1H-benzo[d]imidazole-5-sulfonamido)cyclohexanecarboxamide] | 574
C[C@@H](NC(=O)[C@H]1CC[C@H](NS(=O)(=O)c2ccc3c(c2)N(C)CCN3C)CC1)c1ccc(F)cc1 [Example 133, (1r,4R)-4-(1,4-dimethyl-1,2,3,4-tetrahydroquinoxaline-6-sulfonamido)-N-((R)-1-(4-fluorophenyl)ethyl)cyclohexanecarboxamide] | 46
C[C@@H](NC(=O)[C@H]1CC[C@H](NS(=O)(=O)c2ccc3cc(-c4ccccc4)[nH]c3c2)CC1)c1ccc(F)cc1 [Example 18, (1r,4R)—N—((R)-1-(4-fluorophenyl)ethyl)-4-(2-phenyl-1H-indole-6-sulfonamido)cyclohexanecarboxamide] | 11
COCCNC(=O)c1ccc2cc(S(=O)(=O)N[C@H]3CC[C@H](C(=O)N[C@H](C)c4ccc(F)cc4)CC3)ccc2n1 [Example 207, 6-(N-((1R,4r)-4-((R)-1-(4-fluorophenyl)ethylcarbamoyl)cyclohexyl)sulfamoyl)-N-(2-methoxyethyl)quinoline-2-carboxamide] | 355
